The subject of one data set is HepG2 cells. Description: Cell proliferation assay (MTT), HepG2. In kind it is cell-based. As to conditions: Homo sapiens. Summed up: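 HCC lines cultured in DMEM with 10% FBS and streptomycin; cytotoxicity measured by MTT method as previously described.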
In another data set the test system is HepG2 xenograft. Kind of data set: HepG2 subcutaneous xenograft model. In kind it is in vivo. On the procedure: Several reports have characterized RalA/B potential regulatory roles in autophagy ([Zhang et al., 2019]; [Pang et al., 2020]; [Zhang et al., 2020]). Considering the dual effect of HCC autophagy, we assessed changes in HepG2 cell autophagy levels after the addition of 0.5 or 2.0 μM of 4p, before incubation. Based on HepG2 cells’ TEM images with or without 4p (Figure 5B), autophagy vacuoles per cell decreased in the 4p-treated group (p < 0.01). After 4p treatments, LC3-II and ATG5 protein levels declined and SQSTM1 increased. […] In GFP-LC3–transfected HepG2 cells, cytoplasm LC3 fluorescent puncta numbers also declined after 4p treatments. […] The in vivo antitumor capacities of 4p were determined on a HepG2 subcutaneous xenograft model. The 4p intraperitoneal injections were set to 15 mg/kg and 60 mg/kg, according to in vitro results. […] The potential 4p molecular mechanisms were further validated using immunofluorescence and IHC analyses of tissue sections stained by antibodies against TUNEL, Ki-67, RalA, LC3-II, and SQSTM1. […] Therefore, the in vivo results were consistent with in vitro experiments.
Female Balb/c nude mice aged 6–8 weeks were purchased from Beijing Huafukang Co. Ltd. (Beijing, China). Animal-based experiments complied with the guidelines of the Animal Ethics Committee (Sichuan University), and all aspects were approved by the Animal Ethics Committee of West China Hospital of Sichuan University (China). In brief, HepG2 cells were injected subcutaneously in the dorsal flank of Balb/c nude mice (5*10^5 cells per mice). Tumor volumes were recorded every 2 days post cancer cell injection. After the therapeutic endpoint, all mice were euthanized, and tumor tissues were stripped, fixed in formalin, embedded in paraffin, and sectioned. The IHC and immunofluorescent staining methods were performed following methods as per our previous research, ([Zhang et al., 2019]; [Pan et al., 2020]; [Pang et al., 2020]; [Zhang et al., 2020]), and detailed experimental procedures are also described in supporting materials. […]
2. Western blotting analysis
For western blotting, the extracts of total protein from each sample were treated in accordance with the method we described previously. In short, the total proteins were loaded into the SDS-PAGE gel and separated through the different of their molecular weight in electrophoresis, after that the separated proteins were shifted into a PVDF membrane (Millipore, Burlington, MA, USA) and incubated through corresponding membrane react pathways. The resulted membranes reacted with major antibodies and HRP (horseradish peroxidase)-conjugated secondary antibodies. The expression profiles of target proteins can be identified through an enhanced chemiluminescence (ECL) substrate.
3. Immunohistochemistry and immunofluorescent assays
The histological sections of tumor tissue were immersed into EDTA antigen recovery buffer (pH 8.0) or citrate buffer (pH 6.0), and then microwave was used to recover antigen. Then the slide was incubated with the corresponding primary antibody at 37 ℃ for 30-40 min. Normal anti-rabbit or anti-mouse IgG was used as a negative control group. Immunohistochemical analysis was performed with diaminobenzidine solution after the sections was treated with HRP polymer as well as the second antibody for 30 min. Immunofluorescence (IF) test was carried out by treating slides with fluorescein combined with secondary antibody and detecting under fluorescence microscope. The IHC staining method is to use the corresponding primary antibody, as we reported in previous

Data set [1] concerns the target T1, RalB (Homo sapiens, UniProt P11234).
T1 construct: expressed in transfected cells; host or cells: HepG2 (from b6; the methods paragraph names no cell line)
T1 sequence (P11234 1-203 limits assumed): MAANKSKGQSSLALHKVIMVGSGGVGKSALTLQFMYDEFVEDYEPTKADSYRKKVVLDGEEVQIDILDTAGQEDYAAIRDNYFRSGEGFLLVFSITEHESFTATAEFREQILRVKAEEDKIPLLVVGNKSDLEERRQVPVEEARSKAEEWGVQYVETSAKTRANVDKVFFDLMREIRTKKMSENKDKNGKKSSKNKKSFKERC
Description: ELISA-based RalB activity assay (RalBP1-coated plates, lysates of compound-treated cells). In kind it is biochemical. Put shortly:
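Lysates of compound- or vehicle-treated cells, cleared by cold centrifugation, incubated overnight at 4°C on RalBP1-coated plates. Bound Ral detected with mouse anti-FLAG then HRP anti-mouse antibody; reaction stopped with 2 mol/L sulfuric acid and read at OD450.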
In general terms: ELISA stands for enzyme-linked immunosorbent assay.

In data set [2] the target is T1, RalB. Description: GST pulldown of activated RalB. The data set is classed as cell-based. As to conditions: 2.0 μM. On the procedure: GST pulldown assays were performed to assess 4p RalA/B inhibitory capacities. […] Only activated RalA was suppressed after incubation with 0.5 μM of compound 4p (Figure 5A).
The in vitro RalA/B bioactivity assays were performed following methods outlined in previous reports. ([Yan et al., 2016]; [Zhang et al., 2018]; [Walsh et al., 2019]; [Bum-Erdene et al., 2020]). In brief, the lysates of the test compound or vehicle-treated cells were cleared using cold centrifugation, and supernatants were collected. An RalBP1 solution was added to 96-well plates and incubated for 1–2 h, and then the plates were washed thrice using ELISA buffer. Next, cellular lysates were added, and samples were incubated overnight at 4°C. Then, ice-cold mouse anti-FLAG antibody was added, and samples were incubated for one more hour. After subsequent washing with ELISA buffer thrice, the HRP-conjugated anti-mouse antibody was added, and samples were incubated for another hour. Then, the HRP substrate was added. Antigen–antibody reactions were quenched by the addition of sulfuric acid (2 mol/L). Remaining RalA/B was detected by the OD450 values which were collected by using a plate reader. Cell proliferation assays, colony formation assays, apoptosis assays, GST pulldown, and Western blotting were used following methods outlined in our previous reports. […]

The test system of the next data set is Hep3B cells. Description: Cell proliferation assay (MTT), Hep3B. The data set is classed as cell-based. As to conditions: Homo sapiens, average of at least three independent replicates ± SD, read-out: Anti-proliferative activities (IC50, μM) Hep3B. On the procedure:
The antibodies recognizing LC3, p62/SQSTM1, RalA, RalB, and GAPDH were purchased from Proteintech (Wuhan, China). HCC cell lines, including HepG2, Hep3B, Huh-7, and SMMC-7721, were obtained from the Chinese Center for Type Culture Collection (Wuhan, China) and cultured in DMEM (Dulbecco’s modified Eagle’s medium) with 10% FBS (fetal bovine serum) and streptomycin. Cytotoxicity assays were performed by using the MTT method as previously described.
The in vitro RalA/B bioactivity assays were performed following methods outlined in previous reports. ([Yan et al., 2016]; [Zhang et al., 2018]; [Walsh et al., 2019]; [Bum-Erdene et al., 2020]). In brief, the lysates of the test compound or vehicle-treated cells were cleared using cold centrifugation, and supernatants were collected. An RalBP1 solution was added to 96-well plates and incubated for 1–2 h, and then the plates were washed thrice using ELISA buffer. Next, cellular lysates were added, and samples were incubated overnight at 4°C. Then, ice-cold mouse anti-FLAG antibody was added, and samples were incubated for one more hour. After subsequent washing with ELISA buffer thrice, the HRP-conjugated anti-mouse antibody was added, and samples were incubated for another hour. Then, the HRP substrate was added. Antigen–antibody reactions were quenched by the addition of sulfuric acid (2 mol/L). Remaining RalA/B was detected by the OD450 values which were collected by using a plate reader. Cell proliferation assays, colony formation assays, apoptosis assays, GST pulldown, and Western blotting were used following methods outlined in our previous reports. ([Zhou et al., 2015]; [Zhang et al., 2016]; [Yang et al., 2017]; [He et al., 2019]). Autophagy levels and protein immunoblotting were used following the methods mentioned in our previous reports ([Pan et al., 2018]; [Wang et al., 2018]; [Hao et al., 2019]; [Wang et al., 2019]; [Peng et al., 2020]). Detailed experimental procedures are described in supporting materials.

Like-named read-outs stand apart in the source and are kept apart here.

These results are taken from paper PMC8634879, “Design, Synthesis, and Biological Evaluation of Pyrano[2,3-c]-pyrazole–Based RalA Inhibitors Against Hepatocellular Carcinoma” (Frontiers in Chemistry, 2021).

`COc1ccc(S(=O)(=O)NC2=C(C#N)C(c3ccc(C(F)(F)F)cc3)c3c(C)nn(-c4ccccc4)c3O2)cc1` (stereo not shown) [4p, N-(5-cyano-3-methyl-1-phenyl-4-(4-(trifluoromethyl)phenyl)-1,4-dihydropyrano[2,3-c]-pyrazol-6-yl)-4-methoxybenzenesulfonamide]: the IC50 (as a rule, the point on the concentration scale where inhibition reaches its midpoint) with HepG2 cells (HepG2, Table 1, cell proliferation inhibition, read-out: IC50 (μM) HepG2) worked out at 2.28 ± 0.23 µM; with HepG2 cells (HepG2, Table 2, average of at least three independent replicates ± SD, read-out: Anti-proliferative activities (IC50, μM) HepG2) it was 2.28 ± 0.23 µM; on RalB [1] (enzymatic inhibition, average of at least three independent replicates ± SD, read-out: Kinase activities (IC50, μM) RalB) it was 0.41 ± 0.07 µM; with Hep3B cells, 2.71 ± 0.27 µM. Moreover, the body weights entry in the data set with HepG2 xenograft (15 and 60 mg/kg i.p.) is on record as “without significant changes”. Moreover, the “total RalA levels in tumor sections” value with HepG2 xenograft (IHC) is “No clear changes”. For the same molecule, the “mean tumor weights compared to the control” value with HepG2 xenograft (both high- and low-dosage groups (60 and 15 mg/kg i.p.), p < 0.01) is “notably declined”. In addition, in the data set with HepG2 xenograft (high dosage group, immunofluorescence/IHC), the “TUNEL and SQSTM1 levels in tumor sections” value was “increased”. The “LC3-II expression in tumor sections” value in the data set with HepG2 xenograft (high dosage group, p < 0.01) is reported as “decreased”. Besides, the “tumor growth inhibition (TGI)” value in the data set with HepG2 xenograft (high dosage, 60 mg/kg intraperitoneal injection) was determined as 63%; in the data set with HepG2 xenograft (low dosage, 15 mg/kg intraperitoneal injection) it was 39%. The remaining activity (commonly what remains of the control signal, in per cent) at 1 µM on RalB [1] (1 μM compound, % control = active (RalBP1-bound) RalB remaining) was 22%. Further, the “activated RalB protein expression level” value at RalB [2] is reported as “significantly suppressed”.
